Source: patent publication US20030023104A1, “Therapeutic compound - fatty acid conjugates” (COMMONWEALTH SCIENTIFIC AND INDUSTRIAL RESEARCH ORGANISATION, priority 1995, published 2003)
Several values for one entry are separate records, joined by “and”; a condition that tells them apart may be missing. Equal values may be shown once. Read-outs that look alike come from different tables or passages of the source.

How the values were obtained:
B16 mouse melanoma cells = experiment: Cytotoxicity of chlorambucil and conjugates, MTS assay, B16; assay type: cell-based; conditions: for IC50: B16, ethanol delivery, 48 h
Procedure: Media was removed and complete EMEM ± drug was added to wells. Cells were further cultured for 48 h.
(§1) Each concentration was tested in at least 3 wells.

B16 melanoma cells = experiment: Tumour Cytotoxicity Model (B16 melanoma in C57 mice); assay type: in vivo, C57 black mice; parameters: Mean (standard error) of B16 tumour volume adjusted for the variation in initial volume: scale not given here; conditions: for Mean (standard error) of B16 tumour volume adjusted for the variation in initial volume: statistically modified tumour volume; for B16 Tumour Volume: individual mice
Procedure: Groups of C57 black mice were given an initiation dose of 2×10^5 B16 melanoma cells as an intradermal injection. The cells were suspended in MEM without serum. The abdomen was clipped and 100 μl of cells + MEM was injected. […] The tumours were measured with a micrometer and photographed just prior to the injection of drug (day 8-10).
The cytotoxic drugs and their fatty acid conjugates were dissolved or suspended in 4:1 soy bean oil:ethyl oleate. A 10 mg/ml or a 20 mg/ml solution of each parent drug or the fatty acid conjugate made to the same molar concentration as the parent drug was then injected into the same region as the tumour at a dose of 0.5 mg or 1 mg. The tumours were then photographed, measured and re-injected every two to three days.

[1] = test system: JURKAT cells (acute T cell human leukemia)
Procedure: The cytotoxicity of chlorambucil and chlorambucil fatty acid conjugates (CGTP1. P2 and P3) were tested in vitro with JURKAT cells (acute T cell human leukemia). Cells were incubated with drug and viability was determined by a colourmetric proliferation test. Cytotoxicity towards other cells lines was also tested (PC3 human prostate cancer cells, B16 mouse melanoma cells and human peripheral blood mononuclear cells).
JURKAT cells were seeded into 96-well plates at a density of 1.6×10^4 cells/200 μl complete RPMI ± drug and cultured for 64 h. A 1:3 split of confluent PC3 cells in a 75 cm^2 flask were seeded into a 96-well plate and cultured for 48 h in complete RPMI. Media was removed and complete RPMI ± drug was added to wells. Cells were further cultured for 72 h.
i) Ethanol. Drugs were dissolved in ethanol and added to culture media. The final concentration of ethanol in media was no greater than 1% (v/v). This delivery was used for experiments with JURKAT, PBMC, PC3 and B16 cell types.
ii) Coating of plates. Drugs were dissolved in ethanol and aliquots (up to 40 μl) were added to 90% (v/v) isopropanol. Solution (50 μl) was then added to wells of a 96-well plate and the solvent evaporated by heating at 37° C. Media ± cells was then added. This delivery was used for some experiments with JURKAT cells.
Viability was determined using the MTS assay (CellTiter 96TM AQueous Non-Radioactive Cell Proliferation Assay) from Promega. Reagent (40 μl) was added to each well and absorbance values at 490 nm were determined 1 to 4 h later. The effect of drug on cell viability was compared to cultures set up containing no drug (100% viability). Wells containing no cells were used to control for background absorbance (0% viability). Each concentration was tested in at least 3 wells. Concentrations necessary to cause a 50% inhibition of cellular growth of control cells (IC50) were calculated by linear regression.

[2] = test system: human peripheral blood mononuclear cells; experiment: Cytotoxicity of chlorambucil and conjugates, MTS assay, PBMC; assay type: cell-based; conditions: for IC50: ethanol delivery
Procedure: Human peripheral blood mononuclear cells (PBMC) were isolated from one healthy donor by centrifugation on Ficoll-Paque (Pharmacia). Cells were seeded into a 96-well plates at a density of 2×10^5 cells/200 μl complete RPMI ± drug and cultured for 40 h.
as §1

[3] = test system: PC3 human prostate cancer cells; experiment: Cytotoxicity of chlorambucil and conjugates, MTS assay, PC3; assay type: cell-based; conditions: for IC50: PC3, ethanol delivery, 72 h
Procedure: Cells were further cultured for 72 h.
as §1

[4] = test system: JM (semi mature human T-cell from lymphoblastoid leukemia); experiment: Cell growth (cytotoxicity) in JM cells; assay type: cell-based
Procedure: (§2) The anti-HIV activities of AZT-Suc-GTP1 and AZT-Suc-GTP2 were also tested. Infected cells were incubated for 5 days with compound. Compounds were dissolved in DMSO and 5-fold dilutions were used. The following parameters were measured: syncytia formation, virus antigen gp120 production, cell survival. Cytotoxicity is also measured in uninfected cells.
(§3) JM (semi mature human T-cell from lymphoblastoid leukemia) infected with HIV-I U4550
(§4) IC50=concentration of drug which reduces cell growth by 50%.

HIV-I U4550 = experiment: Anti HIV activity, Ag gp120 production in infected JM cells; assay type: cell-based
Procedure: as §2, §3
(§5) EC50=concentration which reduces Ag gp120by 50% in infected cell cultures.

HIV-I MN = experiment: Anti HIV activity, Ag gp120 production in infected C8166 cells; assay type: cell-based
Procedure: as §2
(§6) C8166 (human T-lymphoblastoid cells) infected with HIV-I MN
as §5

[5] = test system: C8166 (human T-lymphoblastoid cells); experiment: Cell growth (cytotoxicity) in C8166 cells; assay type: cell-based
Procedure: as §2, §6, §4

UVB induced oedema = experiment: UVB erythema assay (net skin fold thickness); assay type: in vivo, Skh-1 hairless albino female mice; conditions: for activity equivalent to % of the hydrocortisone activity in protecting against UVB induced oedema: 0.5 mg/mouse, applied at Day 0, post UVB exposure
[6] = test system: UVB induced immunosuppression; experiment: Contact Hypersensitivity Assay (oxazolone, net ear swelling); assay type: in vivo, mice; conditions: total 3 MED UVB
Excerpt: The assay used the method described in “Current Protocols in Immunology” (Vol 1, Section 4.2 Eds Coligan et al. (1991) NIH). The sensitiser was Oxazalone. Briefly this method was as follows:
UVB Radiation. Mice were irradiated with a single FL40SE UVB fluorescent tube (Oliphant) in a reflective batten, providing […] UVB radiation measured at target distance using an International Light IL1700 radiometer with a UVB detector sensitive between 250-315 nm. The mice received 0.1179 J/cm^2 UVB radiation, constituting 1 minimal erythemal dose (MED) as previously ascertained, on each of 3 consecutive days, being exposed unrestrained with the wire cage tops removed.
Induction of Systemic Contact Hypersensitivity. Test mice were exposed on the dorsum to 1 MED UVB radiation (or no UVB radiation) at the same hour on days 1, 2 and 3. On days 8 and 9, the mice (irradiated and non-irradiated) were sensitized by topical application to the abdominal skin of 0.1 ml of 3% (w/v) oxazolone (Sigma Chemical Co., St Louis, Mo.) freshly prepared in ethanol. On day 15, the pre-challenge ear thickness was measured using the spring micrometer, and the mice were then challenged by the application of 5 ul freshly prepared 3% oxazolone/ethanol solution to both surfaces of each pinna. Ear thickness was again measured repeatedly between 16-24 hours, and the maximum ear thickness was recorded. The net ear swelling was calculated as the difference between the average pre-challenge and the average post-challenge ear thickness for each treatment group. Statistical significance of the differences in net ear swelling between treatment groups was assessed with Student's t test.
The mice were painted with vehicle, 0.5 mg/mouse HC, 0.5 mg/mouse HC-Suc-GTP2. 1 mg/mouse 17-b HC-Suc-GTP3 or 17-b HC within 10 minutes post UVB exposure. A total of 3 MED of unshielded UVB was used. (Table 3)

[7] = JURKAT, addition of ethanol solution to culture media
[8] = JURKAT, coating of plates (Table 8)
[9] = JURKAT, drugs coated onto plates (Table 9)
[10] = 5 days, read-out: IC50 (concentration of drug which reduces cell growth by 50%)
[11] = 0.5 mg/mouse topical, applied Day 0 after UV exposure, 2MED UVB
[12] = 0.5 mg/mouse topical, applied Day −3 (3 days prior to UV exposure), 2MED UVB

Compound: Chlorambucil [reference compound]
- IC50 (B16 mouse melanoma cells): 36.5 µM
- difference in tumour volume from the Vehicle group (95% level) (B16 melanoma cells; 0.5 mg and 1.0 mg groups): significant difference
- Mean (standard error) of B16 tumour volume adjusted for the variation in initial volume (B16 melanoma cells; 13/11/95, 0.5 mg): 3.01 (0.610)
- Mean (standard error) of B16 tumour volume adjusted for the variation in initial volume (B16 melanoma cells; 15/11/95, 0.5 mg): 3.29 (0.955)
- Mean (standard error) of B16 tumour volume adjusted for the variation in initial volume (B16 melanoma cells; 16/11/95, 0.5 mg): 3.46 (1.15)
- Mean (standard error) of B16 tumour volume adjusted for the variation in initial volume (B16 melanoma cells; 17/11/95, 0.5 mg): 3.65 (1.38)
- toxicity observed in test group (B16 melanoma cells; C57 mice, repeated injection every two to three days): High toxicity
- B16 Tumour Volume (B16 melanoma cells; Day 1, drug dose 0.5 mg injected at tumour region): 0.5 mm^2 and 1.6 mm^2 and 8.2 mm^2 and 16.6 mm^2
- B16 Tumour Volume (B16 melanoma cells; Day 3, drug dose 0.5 mg): 0.5 mm^2 and 0 mm^2 and 21.8 mm^2 and 38.3 mm^2
- B16 Tumour Volume (B16 melanoma cells; Day 5, drug dose 0.5 mg): 0 mm^2 (2×) and 7.7 mm^2 and 108.4 mm^2
- B16 Tumour Volume (B16 melanoma cells; Day 6, drug dose 0.5 mg): 0 mm^2 (2×) and 7.7 mm^2 and 125.1 mm^2
- B16 Tumour Volume (B16 melanoma cells; Day 7, drug dose 0.5 mg): 0 mm^2 (2×) and 5.9 mm^2 and 174.1 mm^2
- mice died (B16 melanoma cells; chlorambucil test group): 3 out of 7
- IC50 [1, 7]: 101 µM
- IC50 [1, 8]: 219 µM
- IC50 [1, 9]: 219 µM
- IC50 ([1]; JURKAT, ethanol delivery, 64 h): 101 µM
- IC50 ([2]; PBMC (1) = one donor, 40 h): 45 µM
- IC50 ([2]; PBMC (3) = three donors): < 22 µM
- IC50 [3]: 160 µM

Compound: CCCCCCCCCCCCCCCC(=O)OCC(CO)(CO)NC(=O)CNC(=O)CCCc1ccc(N(CCCl)CCCl)cc1 [CGTP1, Chlorambucil-Gly-Tris-Monopalmitate]
- Clorambucil to CGTP1 Ratio (IC50) (B16 mouse melanoma cells; B16): 1.6
- IC50 (B16 mouse melanoma cells): 23.1 µM
- Clorambucil to CGTP1 Ratio (IC50) ([1]; JURKAT): 15 and 15.5
- IC50 [1, 7]: 6.5 µM
- IC50 [1, 8]: 8.6 µM
- IC50 [1, 9]: 8.4 µM
- IC50 ([1]; JURKAT, ethanol delivery, 64 h): 6.5 µM
- cytotoxicity to JURKAT cells (in words) ([1]; comparison of conjugate, equimolar mixture and GTP1 alone): more cytotoxic to JURKAT cells than an equimolar mixture of chlorambucil and GTP1
- fold increase in toxicity to normal cells (PBMC) versus chlorambucil ([2]; PBMC): approximately 5
- Clorambucil to CGTP1 Ratio (IC50) ([2]; PBMC (1)): 6.3
- IC50 ([2]; PBMC (1) = one donor, 40 h): 7.1 µM
- Clorambucil to CGTP1 Ratio (IC50) ([2]; PBMC (3)): approx. 4
- IC50 ([2]; PBMC (3) = three donors): 5.5 µM
- Clorambucil to CGTP1 Ratio (IC50) ([3]; PC3): 15.0
- IC50 [3]: 10.7 µM

Compound: CCCCCCCCCCCCCCCC(=O)OCC(CO)(COC(=O)CCCCCCCCCCCCCCC)NC(=O)CNC(=O)CCC(=O)OC[C@H]1O[C@@H](n2cc(C)c(=O)[nH]c2=O)C[C@@H]1N=[N+]=[N-] [AZT-Suc-GTP2]
- fold more cytotoxic than AZT [4]: 25
- IC50 [4, 10]: 200 µM
- Ratio of AZT: Conjugate EC50 (HIV-I U4550; JM cell line): approx. 0.5
- EC50 (HIV-I U4550; JM cells infected with HIV-I U4550, 5 days, read-out: EC50 (concentration which reduces Ag gp120 by 50% in infected cell cultures)): > 200 µM
- Ratio of AZT: Conjugate EC50 (HIV-I MN; C8166 cell line): 0.5
- EC50 (HIV-I MN; C8166 cells infected with HIV-I MN, 5 days, read-out: EC50 (concentration which reduces Ag gp120 by 50% in infected cell cultures)): 0.032 µM
- fold more cytotoxic than AZT [5]: 25
- IC50 [5, 10]: 200 µM

Compound: CCCCCCCCCCCCCCCC(=O)OCC(CO)(COC(=O)CCCCCCCCCCCCCCC)NC(=O)CNC(=O)CCC(=O)OCC(=O)C1(O)CCC2C3CCC4=CC(=O)CCC4(C)C3C(O)CC21C (stereo not drawn) [HC-Suc-GTP2, Hydrocortisone-Suc-Gly-Tris-Dipalmitate]
- Mean Net Skin Fold Thickness (UVB induced oedema; 0.5 mg/mouse topical in ethanol, applied Day −5 (5 days prior to UV exposure), 2MED UVB, measured 24 h): 104.2 ± 14.7 10^−2 mm
- Mean Net Skin Fold Thickness (UVB induced oedema; [11]): 60.6 ± 8.6 10^−2 mm
- Mean Net Skin Fold Thickness (UVB induced oedema; [12]): 94.3 ± 10.3 10^−2 mm
- activity equivalent to % of the hydrocortisone activity in protecting against UVB induced oedema (UVB induced oedema): approximately 50%
- Mean Net Skin Fold Thickness (UVB induced oedema; 1 mg/mouse (1% w/v) topical, applied Day 0 after UV exposure): 57.5 ± 10.9
- Mean Net Skin Fold Thickness (UVB induced oedema; 1 mg/mouse (1% w/v) topical, applied Day −3): 60.8 ± 8.8
- Net Ear Swelling ([6]; 0.5% (0.5 mg/mouse) painted within 10 minutes post UVB exposure): 29.8 10^−2 mm

Compound: CCCCCCCCCCCCCCCC(=O)OCC(COC(=O)CCCCCCCCCCCCCCC)(COC(=O)CCCCCCCCCCCCCCC)NC(=O)CNC(=O)CCC(=O)OCC(=O)[C@@]1(O)CC[C@H]2[C@@H]3CCC4=CC(=O)CC[C@]4(C)[C@H]3[C@@H](O)C[C@@]21C [17-b HC-Suc-GTP3, 17-b Hydrocortisone-21-Suc-Gly-Tris-Tripalmitate]
- Mean Net Skin Fold Thickness (UVB induced oedema; [11]): 42.7 ± 13.7 10^−2 mm
- Mean Net Skin Fold Thickness (UVB induced oedema; [12]): 90.7 ± 14.8 10^−2 mm
- activity equivalent to % of the hydrocortisone activity in protecting against UVB induced oedema (UVB induced oedema): approximately 50%
- Net Ear Swelling ([6]; 1% (1 mg/mouse) painted within 10 minutes post UVB exposure): 32.8 10^−2 mm
